# System: yeast genes (expressed mRNA)
# Test: DNA chip measurement of expressed mRNA of yeast genes after culture with a toxic chemical substance
# Assay type: cell-based, Saccharomyces cerevisiae S288C
# Settings: for level of expressed mRNA in the presence of chemical substance / level in the absence of chemical substance: cultured two hours with the chemical substance; for The level of expressed mRNA in the presence of chemical substance/The level of expressed mRNA in the absence of chemical substance: cultured two hours with substance
# Summary of the method: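 Each expression value is the mRNA level in chemical-treated yeast divided by that in untreated yeast, from Cy3/Cy5 fluorescence on a whole-genome chip. Log-phase S288C cells in YPD at 25° C had received a sublethal, growth-inhibiting dose for two hours. Intensity denotes control expression relative to the all-gene mean.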
smiles,measurement,setting,value
"[Cl][Pb][Cl] [(4), PbCl2]",level of expressed mRNA in the presence of chemical substance / level in the absence of chemical substance,yeast gene YNL058C,1.7
same,level of expressed mRNA in the presence of chemical substance / level in the absence of chemical substance,yeast gene YNL063W,1.4
same,The level of expressed mRNA in the presence of chemical substance/The level of expressed mRNA in the absence of chemical substance,yeast gene YNL074C,1.2
same,The level of expressed mRNA in the presence of chemical substance/The level of expressed mRNA in the absence of chemical substance,yeast gene YNL092W,1.8
same,The level of expressed mRNA in the presence of chemical substance/The level of expressed mRNA in the absence of chemical substance,yeast gene YNL115C,1.4
same,The level of expressed mRNA in the presence of chemical substance/The level of expressed mRNA in the absence of chemical substance,yeast gene YNL156C,1.3
same,level of expressed mRNA in the presence of chemical substance / level in the absence of chemical substance,yeast gene YNL176C,1.0
same,level of expressed mRNA in the presence of chemical substance / level in the absence of chemical substance,yeast gene YNL194C,15.2
same,level of expressed mRNA in the presence of chemical substance / level in the absence of chemical substance,yeast gene YNL200C,2.0
same,The level of expressed mRNA in the presence of chemical substance/The level of expressed mRNA in the absence of chemical substance,yeast gene YNL234W,1.8
same,level of expressed mRNA in the presence of chemical substance / level in the absence of chemical substance,yeast gene YNL253W,1.0
same,level of expressed mRNA in the presence of chemical substance / level in the absence of chemical substance,yeast gene YNL276C,0.3
same,The level of expressed mRNA in the presence of chemical substance/The level of expressed mRNA in the absence of chemical substance,yeast gene YNL281W,1.4
same,The level of expressed mRNA in the presence of chemical substance/The level of expressed mRNA in the absence of chemical substance,yeast gene YNL305C,1.4
same,level of expressed mRNA in the presence of chemical substance / level in the absence of chemical substance,yeast gene YNR051C,0.6
same,The level of expressed mRNA in the presence of chemical substance/The level of expressed mRNA in the absence of chemical substance,yeast gene YNR068C,2.6
same,level of expressed mRNA in the presence of chemical substance / level in the absence of chemical substance,yeast gene YOL026C,1.4
same,The level of expressed mRNA in the presence of chemical substance/The level of expressed mRNA in the absence of chemical substance,yeast gene YOL032W,1.3
same,The level of expressed mRNA in the presence of chemical substance/The level of expressed mRNA in the absence of chemical substance,yeast gene YOL036W,0.8
same,The level of expressed mRNA in the presence of chemical substance/The level of expressed mRNA in the absence of chemical substance,yeast gene YOL047C,2.5
same,The level of expressed mRNA in the presence of chemical substance/The level of expressed mRNA in the absence of chemical substance,yeast gene YOL071W,2.0
same,The level of expressed mRNA in the presence of chemical substance/The level of expressed mRNA in the absence of chemical substance,yeast gene YOL082W,2.1
same,The level of expressed mRNA in the presence of chemical substance/The level of expressed mRNA in the absence of chemical substance,yeast gene YOL083W,2.8
same,The level of expressed mRNA in the presence of chemical substance/The level of expressed mRNA in the absence of chemical substance,yeast gene YOL117W,1.4
same,The level of expressed mRNA in the presence of chemical substance/The level of expressed mRNA in the absence of chemical substance,yeast gene YOL131W,1.0
same,The level of expressed mRNA in the presence of chemical substance/The level of expressed mRNA in the absence of chemical substance,yeast gene YOL150C,0.9
same,The level of expressed mRNA in the presence of chemical substance/The level of expressed mRNA in the absence of chemical substance,yeast gene YOL162W,1.4
same,The level of expressed mRNA in the presence of chemical substance/The level of expressed mRNA in the absence of chemical substance,yeast gene YOR019W,4.7
same,level of expressed mRNA in the presence of chemical substance / level in the absence of chemical substance,yeast gene YOR022C,1.2
same,level of expressed mRNA in the presence of chemical substance / level in the absence of chemical substance,yeast gene YOR087W,1.3
same,level of expressed mRNA in the presence of chemical substance / level in the absence of chemical substance,yeast gene YOR138C,0.8
same,The level of expressed mRNA in the presence of chemical substance/The level of expressed mRNA in the absence of chemical substance,yeast gene YOR197W,1.4
same,level of expressed mRNA in the presence of chemical substance / level in the absence of chemical substance,yeast gene YOR253W,1.4
same,level of expressed mRNA in the presence of chemical substance / level in the absence of chemical substance,yeast gene YOR267C,0.9
same,level of expressed mRNA in the presence of chemical substance / level in the absence of chemical substance,yeast gene YOR325W,0.3
same,level of expressed mRNA in the presence of chemical substance / level in the absence of chemical substance,yeast gene YPL005W,1.0
same,The level of expressed mRNA in the presence of chemical substance/The level of expressed mRNA in the absence of chemical substance,yeast gene YPL087W,7.3
same,level of expressed mRNA in the presence of chemical substance / level in the absence of chemical substance,yeast gene YPL150W,0.9
same,level of expressed mRNA in the presence of chemical substance / level in the absence of chemical substance,yeast gene YPL152W,1.8
same,level of expressed mRNA in the presence of chemical substance / level in the absence of chemical substance,yeast gene YPL168W,1.4
same,level of expressed mRNA in the presence of chemical substance / level in the absence of chemical substance,yeast gene YPL180W,0.6
same,level of expressed mRNA in the presence of chemical substance / level in the absence of chemical substance,yeast gene YPL188W,1.0
same,The level of expressed mRNA in the presence of chemical substance/The level of expressed mRNA in the absence of chemical substance,yeast gene YPL196W,1.7
same,The level of expressed mRNA in the presence of chemical substance/The level of expressed mRNA in the absence of chemical substance,yeast gene YPL206C,1.9
same,level of expressed mRNA in the presence of chemical substance / level in the absence of chemical substance,yeast gene YPL221W,1.8
same,The level of expressed mRNA in the presence of chemical substance/The level of expressed mRNA in the absence of chemical substance,yeast gene YPL222W,1.3
same,level of expressed mRNA in the presence of chemical substance / level in the absence of chemical substance,yeast gene YPL225W,1.6
same,The level of expressed mRNA in the presence of chemical substance/The level of expressed mRNA in the absence of chemical substance,yeast gene YPR023C,0.8
same,level of expressed mRNA in the presence of chemical substance / level in the absence of chemical substance,yeast gene YPR049C,1.0
same,level of expressed mRNA in the presence of chemical substance / level in the absence of chemical substance,yeast gene YPR146C,0.9
same,level of expressed mRNA in the presence of chemical substance / level in the absence of chemical substance,yeast gene YPR148C,1.3
same,The level of expressed mRNA in the presence of chemical substance/The level of expressed mRNA in the absence of chemical substance,yeast gene YPR151C,4.1
same,level of expressed mRNA in the presence of chemical substance / level in the absence of chemical substance,yeast gene YPR172W,1.2

# Source: patent publication US20100041089A1, “IMPROVED METHOD FOR DETECTING CHEMICAL […]” (priority 2006, published 2010)
